Here are results for 2 molecules from patent publication US7718679B2, “Heteroaryl carboxamides” (Hoffman-La Roche Inc., priority 2006, dated 2010).

The target in this assay is T1, human factor Xa (Homo sapiens, UniProt P00742).
T1 construct: Factor Xa is a serine endopeptidase composed of two disulfide-linked subunits; purchased Enzyme Research Laboratories
Briefly: Factor Xa chromogenic peptide substrate (S-2222) assay. It counts as biochemical. The conditions noted are these: apparent Ki by Cheng-Prusoff from IC50; human factor Xa 3 nM, substrate S-2222, pH 7.8, room temperature.

T1 sequence (P00742 235-488 limits assumed): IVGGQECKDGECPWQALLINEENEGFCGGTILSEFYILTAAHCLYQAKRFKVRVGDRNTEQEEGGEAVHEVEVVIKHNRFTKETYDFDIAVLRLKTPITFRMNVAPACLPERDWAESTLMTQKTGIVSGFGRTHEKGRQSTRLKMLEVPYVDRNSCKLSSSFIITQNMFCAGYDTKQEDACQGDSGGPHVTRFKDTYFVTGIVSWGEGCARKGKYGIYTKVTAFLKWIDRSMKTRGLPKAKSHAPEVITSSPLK
T1 sequence (P00742 41-179 partner limits assumed): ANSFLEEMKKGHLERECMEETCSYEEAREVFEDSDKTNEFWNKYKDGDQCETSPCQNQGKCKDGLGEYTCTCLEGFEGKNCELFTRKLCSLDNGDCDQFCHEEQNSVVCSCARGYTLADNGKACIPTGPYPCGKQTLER
Protocol: Factor Xa activity was measured spectrophotometrically in microtiter plates in a final volume of 150 μl using the following conditions: Inhibition of human factor Xa (Enzyme Research Laboratories) was tested at an enzyme concentration of 3 nM using the chromogenic substrate S-2222 (Chromogenix AB, Mölndal, Sweden) at 200 nM. The reaction kinetics of the enzyme and the substrate were linear with both time and the enzyme concentration. The inhibitors were dissolved in DMSO and tested at various concentrations up to 100 μM. The inhibitors were diluted using HNPT buffer consisting of HEPES 100 mMM, NaCl 140 mM, PEG 6000 0.1% and Tween 80 0.02%, pH 7.8. […] The velocity of the reaction was determined by the autoreader from the slope of the linear regression fit to 7 time points (1 minute). The initial velocity for each inhibitor concentration was determined by the slope of at least 4 time points in the linear phase by a linear regression fit (mOD/min^2). Apparent dissociation constants Ki were calculated according to Cheng and Prusoff [Cheng, Y. C.; Prusoff, W. H. Relationship between the inhibition constant (Ki) and the concentration of the inhibitor that causes 50 percent inhibition (IC50) of an enzyme reaction. Biochem. Pharmacol. 1973, 22, 3099-3108.] based on the IC50 and the respective Km, determined previously (Ki=IC50/(1+S/Km)). […]

With `O=C(Nc1ccc(-n2ccncc2=O)cc1F)c1nc(CNC(=O)c2ccc(Cl)s2)no1` [Example 3, 3-{[(5-chloro-thiophene-2-carbonyl)-amino]-methyl}-[1,2,4]oxadiazole-5-carboxylic acid [2-fluoro-4-(2-oxo-2H-pyrazine-1-yl)-phenyl]-amide], the Ki is 0.007 µM.

With `O=C(Nc1ccc(N2CCOCC2=O)cc1)c1nc(CNC(=O)c2ccc(Cl)s2)no1` [Example 5, 3-{[(5-chloro-thiophene-2-carbonyl)-amino]-methyl}-[1,2,4]oxadiazole-5-carboxylic acid [4-(3-oxo-morpholin-4-yl)-phenyl]-amide], the Ki amounted to 0.016 µM.
